From ChEMBL document CHEMBL1201862, “PubChem BioAssay data set” (2004)
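Results reflect a 48-hour exposure of cells in 96-well plates to compound at five concentrations. GI50 = concentration required for 50% inhibition of growth.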 The source made the active and inactive calls. Cut-off read from the data, not from the text of the source: active = GI50 up to about 1.1 µM and inactive = higher.

Legend:
Experiment in all cases: inhibition of tumour cell growth, NCI panel, 48 h
[1] = system: LXFL 529
[2] = system: KM-20L2
[3] = system: SR
[4] = system: NCI-H460
[5] = system: DMS-114
[6] = system: A549
[7] = system: RXF 631
[8] = system: KM12
[9] = system: TK-10
[10] = system: DLD-1
[11] = system: M19-MEL
[12] = system: SNB-78
[13] = system: MOLT-4
[14] = system: HOP-18
[15] = system: NCI-H23
[16] = system: EKVX
[17] = system: CAKI-1
[18] = system: SF-295
[19] = system: NCI-H522
[20] = system: HL-60
[21] = system: RXF 393
[22] = system: UO-31
[23] = system: RPMI-8226
[24] = system: SF-268
[25] = system: U-251
[26] = system: SK-MEL-28
[27] = system: CCRF-CEM
[28] = system: Malme-3M
[29] = system: K562
[30] = system: HCT-15
[31] = system: M14
[32] = system: HCT-116
[33] = system: HCC 2998
[34] = system: SK-MEL-2
[35] = system: DMS-273
[36] = system: SK-OV-3
[37] = system: 786-0
[38] = system: OVCAR-3
[39] = system: UACC-62
[40] = system: SW-620
[41] = system: SN12C
[42] = system: NCI-H226
[43] = system: ACHN
[44] = system: UACC-257
[45] = system: SF-539
[46] = system: OVCAR-5
[47] = system: IGROV-1
[48] = system: HOP-92
[49] = system: OVCAR-4
[50] = system: OVCAR-8
[51] = system: LOX IMVI
[52] = system: HOP-62
[53] = system: SNB-75
[54] = system: SK-MEL-5
[55] = system: XF498
[56] = system: HT-29
[57] = system: SNB-19
[58] = system: A498

## O=C1c2c(O)cc(O)cc2OC(c2ccc(O)cc2O)C1O (stereo not drawn)
[1]
  GI50: 36.1 µM (inactive)
[2]
  GI50: 54 µM (inactive)
[3]
  GI50: 25.7 µM (inactive)
[4]
  GI50: 57.8 µM (inactive)
[5]
  GI50: 32.5 µM (inactive)
[6]
  GI50: 79.6 µM (inactive)
[7]
  GI50: 40.5 µM (inactive)
[8]
  GI50: 60.4 µM (inactive)
[9]
  GI50: 57.4 µM (inactive)
[10]
  GI50: 50.9 µM (inactive)
[11]
  GI50: 29.9 µM (inactive)
[12]
  GI50: 42.1 µM (inactive)
[13]
  GI50: 28.6 µM (inactive)
[14]
  GI50: 31.8 µM (inactive)
[15]
  GI50: 57.5 µM (inactive)
[16]
  GI50: 60.8 µM (inactive)
[17]
  GI50: 59.3 µM (inactive)
[18]
  GI50: 56.4 µM (inactive)

## O=C(Nc1ccc(Cl)cc1Cl)C(=O)Nn1c(S)nc2ccccc2c1=O
[19]
  GI50: > 100 µM (inactive)
[20]
  GI50: > 100 µM (inactive)
[21]
  GI50: > 100 µM (inactive)
[22]
  GI50: > 100 µM (inactive)
[23]
  GI50: > 100 µM (inactive)
[24]
  GI50: > 100 µM (inactive)
[1]
  GI50: > 100 µM (inactive)
[25]
  GI50: > 100 µM (inactive)
[3]
  GI50: > 100 µM (inactive)
[26]
  GI50: > 100 µM (inactive)
[27]
  GI50: > 100 µM (inactive)
[4]
  GI50: > 100 µM (inactive)
[28]
  GI50: > 100 µM (inactive)
[29]
  GI50: > 100 µM (inactive)
[30]
  GI50: > 100 µM
[5]
  GI50: > 100 µM (inactive)
[31]
  GI50: > 100 µM (inactive)
[6]
  GI50: > 100 µM (inactive)
[7]
  GI50: > 100 µM (inactive)
[32]
  GI50: > 100 µM (inactive)
[33]
  GI50: > 100 µM (inactive)
[11]
  GI50: > 100 µM (inactive)
[34]
  GI50: > 100 µM (inactive)
[12]
  GI50: > 100 µM (inactive)
[13]
  GI50: > 100 µM (inactive)
[14]
  GI50: > 100 µM (inactive)
[35]
  GI50: > 100 µM (inactive)
[36]
  GI50: > 100 µM (inactive)
[37]
  GI50: > 100 µM (inactive)
[38]
  GI50: > 100 µM (inactive)

## CC1NS(=O)(=O)N(C)C1=O (stereo not drawn)
[39]
  GI50: > 100 µM (inactive)
[19]
  GI50: > 100 µM (inactive)
[20]
  GI50: > 100 µM (inactive)
[21]
  GI50: > 100 µM (inactive)
[23]
  GI50: > 100 µM (inactive)
[40]
  GI50: > 100 µM (inactive)
[24]
  GI50: > 100 µM (inactive)
[1]
  GI50: > 100 µM (inactive)
[25]
  GI50: > 100 µM (inactive)
[41]
  GI50: > 100 µM (inactive)
[42]
  GI50: > 100 µM (inactive)
[3]
  GI50: > 100 µM (inactive)
[26]
  GI50: > 100 µM (inactive)
[27]
  GI50: > 100 µM (inactive)
[28]
  GI50: > 100 µM (inactive)
[29]
  GI50: > 100 µM (inactive)
[43]
  GI50: > 100 µM (inactive)
[30]
  GI50: > 100 µM
[5]
  GI50: > 100 µM (inactive)
[44]
  GI50: > 100 µM (inactive)
[31]
  GI50: > 100 µM (inactive)
[6]
  GI50: > 100 µM (inactive)
[45]
  GI50: > 100 µM (inactive)
[7]
  GI50: > 100 µM (inactive)
[8]
  GI50: > 100 µM (inactive)
[46]
  GI50: > 100 µM (inactive)
[9]
  GI50: > 100 µM (inactive)
[32]
  GI50: > 100 µM (inactive)
[47]
  GI50: > 100 µM (inactive)
[10]
  GI50: > 100 µM (inactive)
[33]
  GI50: > 100 µM (inactive)
[11]
  GI50: > 100 µM (inactive)
[34]
  GI50: > 100 µM (inactive)
[48]
  GI50: > 100 µM (inactive)
[49]
  GI50: > 100 µM (inactive)
[12]
  GI50: > 100 µM (inactive)
[13]
  GI50: > 100 µM (inactive)
[50]
  GI50: > 100 µM (inactive)
[15]
  GI50: > 100 µM (inactive)
[51]
  GI50: > 100 µM (inactive)
[52]
  GI50: > 100 µM (inactive)
[53]
  GI50: 81.8 µM (inactive)
[35]
  GI50: > 100 µM (inactive)
[36]
  GI50: > 100 µM (inactive)
[37]
  GI50: > 10 µM (inactive)
[54]
  GI50: > 100 µM (inactive)
[55]
  GI50: > 100 µM (inactive)
[38]
  GI50: > 100 µM (inactive)
[17]
  GI50: > 100 µM (inactive)
[18]
  GI50: > 100 µM (inactive)

## FC(F)(F)c1cc(C2SCc3nc4ccccc4n32)cc(C(F)(F)F)c1 (stereo not drawn)
[39]
  GI50: 3.87 µM (inactive)
[20]
  GI50: 3.87 µM (inactive)
[21]
  GI50: 14.8 µM (inactive)
[22]
  GI50: > 100 µM (inactive)
[24]
  GI50: 44.9 µM (inactive)
[1]
  GI50: > 100 µM (inactive)
[2]
  GI50: 3.37 µM (inactive)
[41]
  GI50: 2.9 µM (inactive)
[42]
  GI50: 6.41 µM (inactive)
[27]
  GI50: 4.51 µM (inactive)
[28]
  GI50: 2.92 µM (inactive)
[29]
  GI50: 2.97 µM (inactive)
[43]
  GI50: > 100 µM (inactive)
[44]
  GI50: > 100 µM (inactive)
[45]
  GI50: 24.6 µM (inactive)
[7]
  GI50: 10.6 µM (inactive)
[56]
  GI50: 3.46 µM (inactive)
[8]
  GI50: 4.68 µM (inactive)
[46]
  GI50: > 100 µM (inactive)
[9]
  GI50: > 100 µM (inactive)
[47]
  GI50: 8.13 µM (inactive)
[57]
  GI50: 76 µM (inactive)
[48]
  GI50: 20.4 µM (inactive)
[49]
  GI50: > 100 µM (inactive)
[12]
  GI50: 36.7 µM (inactive)
[13]
  GI50: 2.97 µM (inactive)
[50]
  GI50: 10.3 µM (inactive)
[58]
  GI50: > 100 µM (inactive)
[52]
  GI50: 5.5 µM (inactive)
[35]
  GI50: 3.65 µM (inactive)
[36]
  GI50: 20.5 µM (inactive)
[37]
  GI50: 11.4 µM (inactive)
[55]
  GI50: 8.45 µM (inactive)
[17]
  GI50: 4.24 µM (inactive)
[18]
  GI50: 5 µM (inactive)
